Measurements: patent publication US20240390340A1 (INCYTE CORPORATION, priority 2023, published 2024)
Read-outs that look alike come from different tables or passages of the source.

Key:
KRAS G12V = KRAS G12V (Homo sapiens, UniProt P01116, G12V); experiment: GDP-GTP exchange assay (bodipy-GDP/GppNHp, SOS1), KRAS G12V; type: biochemical
Caco-2 cells = experiment: Caco2 assay (Papp A-B); type: in vitro ADME; conditions: test compound 50 μM, 120 min, 37° C.
How it was run: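 Caco-2 monolayers grown 22–25 days on Transwells (TEER 300 Ω·cm^2) were dosed apically with 50 μM compound in HBSS; basolateral receiver held HBSS with 4% BSA. Incubation 120 min at 37° C, 5% CO2; donor and receiver samples quantified by LCMS and Papp A-B calculated from receiver-side cumulative flux slope.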

KRAS G12D = KRAS G12D (Homo sapiens, UniProt P01116, G12D); experiment: GDP-GTP exchange assay (bodipy-GDP/GppNHp, SOS1), KRAS G12D; type: biochemical
[1] = Table H, column G12V, for compounds isolated as several atropisomers/diastereoisomers the value for the most potent isomer is quoted, read-out: KRAS G12V exchange assay IC50
[2] = Table H, column G12D, for compounds isolated as several atropisomers/diastereoisomers the value for the most potent isomer is quoted, read-out: KRAS G12D exchange assay IC50
[3] = KRAS G12V mutant, value for the most potent isomer quoted for certain compounds, read-out: G12V (KRAS G12V exchange assay IC50)
[4] = bodipy-loaded KRAS G12D 2.5 nM, 4 h pre-incubation, value for the most potent isomer quoted for certain compounds, read-out: G12D (KRAS G12D exchange assay IC50)

KRAS G12D, sequence (P01116 1-188 isoform P01116-2 G12D): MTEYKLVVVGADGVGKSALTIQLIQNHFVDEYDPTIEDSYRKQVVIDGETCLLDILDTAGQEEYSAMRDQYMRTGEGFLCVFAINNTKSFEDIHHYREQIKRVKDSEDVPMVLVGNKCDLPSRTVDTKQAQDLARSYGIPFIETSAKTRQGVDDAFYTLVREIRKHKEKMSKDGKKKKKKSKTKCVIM
KRAS G12V, sequence (P01116 1-188 isoform P01116-2 G12V): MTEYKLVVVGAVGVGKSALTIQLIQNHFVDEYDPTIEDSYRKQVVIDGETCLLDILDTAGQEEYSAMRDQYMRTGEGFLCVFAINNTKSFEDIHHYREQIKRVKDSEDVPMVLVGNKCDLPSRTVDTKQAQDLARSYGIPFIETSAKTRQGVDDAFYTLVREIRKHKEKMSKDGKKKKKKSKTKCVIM

| Structure (SMILES) | IC50 (KRAS G12V; [1]) [nM] | Caco-2 (Caco-2 cells) | IC50 (KRAS G12D; [2]) [nM] | IC50 (KRAS G12V; [3]) [nM] | IC50 (KRAS G12D; [4]) [nM] |
| --- | --- | --- | --- | --- | --- |
| CC[C@@H]1[C@@H](Oc2cc(OC)ncc2F)C[C@H](c2cc3c([C@@H](C)O)nc4c(F)c(-c5cccc(Cl)c5Cl)c(CCC#N)cc4c3n2[C@H]2[C@H]3CN[C@@H]2C3)N1C(=O)C1CC1 [Example 82, 3-(1-((1R,4R,5S)-2-Azabicyclo[2.1.1]hexan-5-yl)-2-((2R,4S,5R)-1-(cyclopropanecarbonyl)-5-ethyl-4-((5-fluoro-2-methoxypyridin-4-yl)oxy)pyrrolidin-2-yl)-7-(2,3-dichlorophenyl)-6-fluoro-4-((R)-1-hydroxyethyl)-1H-pyrrolo[3,2-c]quinolin-8-yl)propanenitrile] |  | +++ (a Caco-2 value of >1) |  | ≤ 100 | ≤ 100 |
| Cc1nc2c(F)c(-c3cccc(Cl)c3Cl)c(CCC#N)cc2c2c1cc([C@H]1C[C@H](OCc3ccccc3F)CN1C(=O)C1CC1)n2[C@H]1[C@H]2CN[C@@H]1C2 [Example 20] | ≤ 100 | + (a Caco-2 value of ≤0.5) | ≤ 100 |  |  |
| Cc1nc2c(F)c(-c3cccc(Cl)c3Cl)c(CCC#N)cc2c2c1cc([C@H]1C[C@H](OCc3ccon3)CN1C(=O)C1CC1)n2[C@H]1[C@H]2CN[C@@H]1C2 [Example 12] | ≤ 100 | + (a Caco-2 value of ≤0.5) | ≤ 100 |  |  |
| Cc1nc2c(F)c(-c3cccc(Cl)c3Cl)c(CCC#N)cc2c2c1cc([C@H]1C[C@H](Oc3ccnc4ccsc34)CN1C(=O)C1CC1)n2[C@H]1[C@H]2CN[C@@H]1C2 [Example 55, 3-(1-((1R,4R,5S)-2-Azabicyclo[2.1.1]hexan-5-yl)-2-((2R,4S)-1-(cyclopropanecarbonyl)-4-(thieno[3,2-b]pyridin-7-yloxy)pyrrolidin-2-yl)-7-(2,3-dichlorophenyl)-6-fluoro-4-methyl-1H-pyrrolo[3,2-c]quinolin-8-yl)propanenitrile] | ≤ 100 | + (a Caco-2 value of ≤0.5) | ≤ 100 |  |  |
| Cc1nc2c(F)c(-c3cccc(Cl)c3Cl)c(CCC#N)cc2c2c1cc([C@H]1C[C@H](OC(C)c3ccon3)CN1C(=O)C1CC1)n2[C@H]1[C@H]2CN[C@@H]1C2 (stereo partly drawn) [Example 32] | ≤ 100 | + (a Caco-2 value of ≤0.5) | ≤ 100 |  |  |
| Cc1nc2c(F)c(-c3cccc(Cl)c3Cl)c(CCC#N)cc2c2c1cc([C@H]1C[C@H](n3nncc3C3CCCC3)CN1C(=O)C1CC1)n2[C@H]1[C@H]2CN[C@@H]1C2 [Example 71, 3-(1-((1R,4R,5S)-2-Azabicyclo[2.1.1]hexan-5-yl)-2-((2R,4S)-4-(5-cyclopentyl-1H-1,2,3-triazol-1-yl)-1-(cyclopropanecarbonyl)pyrrolidin-2-yl)-7-(2,3-dichlorophenyl)-6-fluoro-4-methyl-1H-pyrrolo[3,2-c]quinolin-8-yl)propanenitrile] | ≤ 100 | + (a Caco-2 value of ≤0.5) | ≤ 100 |  |  |
| COC[C@@H]1[C@@H](Oc2cc(OC)ncc2F)C[C@H](c2cc3c([C@@H](C)O)nc4c(F)c(-c5cccc(Cl)c5Cl)c(CCC#N)cc4c3n2[C@H]2[C@H]3CN[C@@H]2C3)N1C(=O)C1CC1 [Example 83] |  | ++ (a Caco-2 value of >0.5 but ≤1) |  | ≤ 100 | ≤ 100 |
| COc1cc(O[C@H]2C[C@H](c3cc4c([C@@H](C)O)nc5c(F)c(-c6cccc(Cl)c6Cl)c(CCC#N)cc5c4n3[C@H]3[C@H]4CN[C@@H]3C4)N(C(=O)C3CC3)C2)ncn1 [Example 57, 3-(1-((1R,4R,5S)-2-Azabicyclo[2.1.1]hexan-5-yl)-2-((2R,4S)-1-(cyclopropanecarbonyl)-4-((6-methoxypyrimidin-4-yl)oxy)pyrrolidin-2-yl)-7-(2,3-dichlorophenyl)-6-fluoro-4-((R)-1-hydroxyethyl)-1H-pyrrolo[3,2-c]quinolin-8-yl)propanenitrile] | ≤ 100 | ++ (a Caco-2 value of >0.5 but ≤1) | ≤ 100 |  |  |

Continued, values first:

| IC50 (KRAS G12V; [1]) [nM] | Caco-2 (Caco-2 cells) | IC50 (KRAS G12D; [2]) [nM] | IC50 (KRAS G12V; [3]) [nM] | IC50 (KRAS G12D; [4]) [nM] | Structure (SMILES) |
| --- | --- | --- | --- | --- | --- |
| ≤ 100 | ++ (a Caco-2 value of >0.5 but ≤1) | ≤ 100 |  |  | Cc1ccccc1O[C@H]1C[C@H](c2cc3c(C)nc4c(F)c(-c5cccc(Cl)c5Cl)c(CCC#N)cc4c3n2[C@H]2[C@H]3CN[C@@H]2C3)N(C(=O)C2CC2)C1 [Example 28, 3-(1-((1R,4R,5S)-2-azabicyclo[2.1.1]hexan-5-yl)-2-((2R,4S)-1-(cyclopropanecarbonyl)-4-(o-tolyloxy)pyrrolidin-2-yl)-7-(2,3-dichlorophenyl)-6-fluoro-4-methyl-1H-pyrrolo[3,2-c]quinolin-8-yl)propanenitrile] |
| ≤ 100 | ++ (a Caco-2 value of >0.5 but ≤1) | ≤ 100 |  |  | Cc1nc2c(F)c(-c3cccc(Cl)c3Cl)c(CCC#N)cc2c2c1cc([C@H]1C[C@H](Oc3cccnc3F)CN1C(=O)C1CC1)n2[C@H]1[C@H]2CN[C@@H]1C2 [Example 39, 3-(1-((1R,4R,5S)-2-Azabicyclo[2.1.1]hexan-5-yl)-2-((2R,4S)-1-(cyclopropanecarbonyl)-4-((2-fluoropyridin-3-yl)oxy)pyrrolidin-2-yl)-7-(2,3-dichlorophenyl)-6-fluoro-4-methyl-1H-pyrrolo[3,2-c]quinolin-8-yl)propanenitrile] |
| ≤ 100 | ++ (a Caco-2 value of >0.5 but ≤1) | ≤ 100 |  |  | C[C@@H]1[C@@H](Oc2cc(F)ccn2)C[C@H](c2cc3c([C@@H](C)O)nc4c(F)c(-c5cccc(Cl)c5Cl)c(CCC#N)cc4c3n2[C@H]2[C@H]3CN[C@@H]2C3)N1C(=O)C1CC1 [Example 63, 3-(1-((1R,4R,5S)-2-Azabicyclo[2.1.1]hexan-5-yl)-2-((2R,4S,5R)-1-(cyclopropanecarbonyl)-4-((4-fluoropyridin-2-yl)oxy)-5-methylpyrrolidin-2-yl)-7-(2,3-dichlorophenyl)-6-fluoro-4-((R)-1-hydroxyethyl)-1H-pyrrolo[3,2-c]quinolin-8-yl)propanenitrile] |
| ≤ 100 | + (a Caco-2 value of ≤0.5) | ≤ 100 |  |  | COc1cc(O[C@H]2C[C@H](c3cc4c([C@@H](C)O)nc5c(F)c(-c6cccc(Cl)c6Cl)c(CCC#N)cc5c4n3[C@H]3[C@H]4CN[C@@H]3C4)N(C(=O)C3CC3)[C@@H]2C)c(F)cn1 [Example 51, 3-(1-((1R,4R,5S)-2-Azabicyclo[2.1.1]hexan-5-yl)-2-((2R,4S,5R)-1-(cyclopropanecarbonyl)-4-((5-fluoro-2-methoxypyridin-4-yl)oxy)-5-methylpyrrolidin-2-yl)-7-(2,3-dichlorophenyl)-6-fluoro-4-((R)-1-hydroxyethyl)-1H-pyrrolo[3,2-c]quinolin-8-yl)propanenitrile] |
| ≤ 100 | + (a Caco-2 value of ≤0.5) | ≤ 100 |  |  | Cc1nc2c(F)c(-c3cccc(Cl)c3Cl)c(CCC#N)cc2c2c1cc([C@H]1C[C@H](OCc3ccnn3C(F)F)CN1C(=O)C1CC1)n2[C@H]1[C@H]2CN[C@@H]1C2 [Example 8] |
| ≤ 100 | +++ (a Caco-2 value of >1) | ≤ 100 |  |  | Cc1nc2c(F)c(-c3cccc(Cl)c3Cl)c(CCC#N)cc2c2c1cc([C@H]1C[C@H](Oc3cc(F)ccn3)CN1C(=O)C1CC1)n2[C@H]1[C@H]2CN[C@@H]1C2 [Example 56, 3-(1-((1R,4R,5S)-2-Azabicyclo[2.1.1]hexan-5-yl)-2-((2R,4S)-1-(cyclopropanecarbonyl)-4-((4-fluoropyridin-2-yl)oxy)pyrrolidin-2-yl)-7-(2,3-dichlorophenyl)-6-fluoro-4-methyl-1H-pyrrolo[3,2-c]quinolin-8-yl)propanenitrile] |
| ≤ 100 | ++ (a Caco-2 value of >0.5 but ≤1) | ≤ 100 |  |  | Cc1cc(CO[C@H]2C[C@H](c3cc4c(C)nc5c(F)c(-c6cccc(Cl)c6Cl)c(CCC#N)cc5c4n3[C@H]3[C@H]4CN[C@@H]3C4)N(C(=O)C3CC3)[C@@H]2C)ns1 [Example 3] |
| ≤ 100 | + (a Caco-2 value of ≤0.5) | ≤ 100 |  |  | Cc1nc2c(F)c(-c3cccc(Cl)c3Cl)c(CCC#N)cc2c2c1cc([C@H]1C[C@H](n3cc(C4CCCCC4)nn3)CN1C(=O)C1CC1)n2[C@H]1[C@H]2CN[C@@H]1C2 [Example 69, 3-(1-((1R,4R,5S)-2-Azabicyclo[2.1.1]hexan-5-yl)-2-((2R,4S)-4-(4-cyclohexyl-1H-1,2,3-triazol-1-yl)-1-(cyclopropanecarbonyl)pyrrolidin-2-yl)-7-(2,3-dichlorophenyl)-6-fluoro-4-methyl-1H-pyrrolo[3,2-c]quinolin-8-yl)propanenitrile] |
| ≤ 100 | ++ (a Caco-2 value of >0.5 but ≤1) | ≤ 100 |  |  | Cc1cc(CO[C@H]2C[C@H](c3cc4c(C)nc5c(F)c(-c6cccc(Cl)c6Cl)c(CCC#N)cc5c4n3[C@H]3[C@H]4CN[C@@H]3C4)N(C(=O)C3CC3)C2)no1 [Example 7] |
| ≤ 100 | + (a Caco-2 value of ≤0.5) | ≤ 100 |  |  | Cc1nc2c(F)c(-c3cccc(Cl)c3Cl)c(CCC#N)cc2c2c1cc([C@H]1C[C@H](OCc3ccccc3C(F)F)CN1C(=O)C1CC1)n2[C@H]1[C@H]2CN[C@@H]1C2 [Example 18] |
| ≤ 100 | + (a Caco-2 value of ≤0.5) | ≤ 100 |  |  | Cc1nc2c(F)c(-c3cccc(Cl)c3Cl)c(CCC#N)cc2c2c1cc([C@H]1C[C@H](n3nnc(N4CCCC4)n3)CN1C(=O)C1CC1)n2[C@H]1[C@H]2CN[C@@H]1C2 [Example 75, 3-(1-((1R,4R,5S)-2-Azabicyclo[2.1.1]hexan-5-yl)-2-((2R,4S)-1-(cyclopropanecarbonyl)-4-(5-(pyrrolidin-1-yl)-2H-tetrazol-2-yl)pyrrolidin-2-yl)-7-(2,3-dichlorophenyl)-6-fluoro-4-methyl-1H-pyrrolo[3,2-c]quinolin-8-yl)propanenitrile] |
